Assay results published in ChEMBL document CHEMBL1201862, “PubChem BioAssay data set” (2004).
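Briefly, cells in 96-well plates were exposed to five compound concentrations for 48 h, and endpoints were estimated by linear interpolation. GI50 marks 50% less growth.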 Calls of active or inactive are those of the source. Rule as the data show it: active = GI50 up to about 1.1 µM and inactive = higher.

How the values were obtained:
Assay in all cases: DTP human tumour cell line panel, 48 h
[1] = test system: HOP-92
[2] = test system: SK-MEL-28
[3] = test system: SF-268
[4] = test system: CCRF-CEM
[5] = test system: UO-31
[6] = test system: RPMI-8226
[7] = test system: NCI-H460
[8] = test system: M19-MEL
[9] = test system: CAKI-1
[10] = test system: HCT-15
[11] = test system: SK-MEL-2
[12] = test system: A498
[13] = test system: A549
[14] = test system: SW-620
[15] = test system: DMS-114
[16] = test system: K562
[17] = test system: UACC-62
[18] = test system: RXF 631
[19] = test system: TK-10
[20] = test system: HOP-62
[21] = test system: KM12
[22] = test system: SNB-19
[23] = test system: Malme-3M
[24] = test system: HCT-116
[25] = test system: SF-295
[26] = test system: SNB-75
[27] = test system: HT-29
[28] = test system: MOLT-4
[29] = test system: XF498
[30] = test system: OVCAR-4
[31] = test system: ACHN
[32] = test system: LOX IMVI
[33] = test system: OVCAR-5
[34] = test system: RXF 393
[35] = test system: SR
[36] = test system: SNB-78
[37] = test system: DLD-1
[38] = test system: COLO 205
[39] = test system: UACC-257
[40] = test system: HOP-18
[41] = test system: U-251
[42] = test system: 786-0
[43] = test system: HL-60
[44] = test system: SK-OV-3
[45] = test system: KM-20L2
[46] = test system: SF-539
[47] = test system: IGROV-1
[48] = test system: LXFL 529
[49] = test system: OVCAR-8
[50] = test system: SK-MEL-5
[51] = test system: SN12C
[52] = test system: EKVX
[53] = test system: M14
[54] = test system: OVCAR-3
[55] = test system: DMS-273
[56] = test system: HCC 2998
[57] = test system: NCI-H23
[58] = test system: NCI-H226
[59] = test system: NCI-H522
[60] = test system: NCI/ADR-RES
[61] = test system: MCF7

CC1=CC2CC(C)C1(C)CCc1ccoc12 (configuration not stated)
GI50 [1]: > 100 µM (inactive)
GI50 [2]: > 100 µM (inactive)
GI50 [3]: > 100 µM (inactive)
GI50 [4]: > 100 µM (inactive)
GI50 [5]: > 100 µM (inactive)
GI50 [6]: > 100 µM (inactive)
GI50 [7]: > 100 µM (inactive)
GI50 [8]: > 100 µM (inactive)
GI50 [9]: > 100 µM (inactive)
GI50 [10]: > 100 µM
GI50 [11]: > 100 µM (inactive)
GI50 [12]: > 100 µM (inactive)
GI50 [13]: > 100 µM (inactive)
GI50 [14]: > 100 µM (inactive)
GI50 [15]: > 100 µM (inactive)
GI50 [16]: > 100 µM (inactive)
GI50 [17]: > 100 µM (inactive)
GI50 [18]: > 100 µM (inactive)
GI50 [19]: > 100 µM (inactive)
GI50 [20]: > 100 µM (inactive)
GI50 [21]: > 100 µM (inactive)
GI50 [22]: > 100 µM (inactive)
GI50 [23]: > 100 µM (inactive)
GI50 [24]: > 100 µM (inactive)
GI50 [25]: > 100 µM (inactive)
GI50 [26]: > 100 µM (inactive)
GI50 [27]: > 100 µM (inactive)
GI50 [28]: > 100 µM (inactive)
GI50 [29]: > 100 µM (inactive)
GI50 [30]: > 100 µM (inactive)
GI50 [31]: > 100 µM (inactive)
GI50 [32]: > 100 µM (inactive)
GI50 [33]: > 100 µM (inactive)
GI50 [34]: > 100 µM (inactive)
GI50 [35]: > 100 µM (inactive)
GI50 [36]: > 100 µM (inactive)
GI50 [37]: > 100 µM (inactive)
GI50 [38]: > 100 µM (inactive)
GI50 [39]: > 100 µM (inactive)
GI50 [40]: > 100 µM (inactive)
GI50 [41]: > 100 µM (inactive)
GI50 [42]: > 100 µM (inactive)
GI50 [43]: > 100 µM (inactive)
GI50 [44]: > 100 µM (inactive)
GI50 [45]: > 100 µM (inactive)
GI50 [46]: > 100 µM (inactive)
GI50 [47]: > 100 µM (inactive)
GI50 [48]: > 100 µM (inactive)
GI50 [49]: > 100 µM (inactive)
GI50 [50]: > 100 µM (inactive)
GI50 [51]: > 100 µM (inactive)
GI50 [52]: > 100 µM (inactive)
GI50 [53]: > 100 µM (inactive)
GI50 [54]: > 100 µM (inactive)
GI50 [55]: > 100 µM (inactive)
GI50 [56]: > 100 µM (inactive)
GI50 [57]: > 100 µM (inactive)

COc1ccc2c(c1)CCc1c(CO)c(COC(=O)NC(C)C)n(C)c1-2
GI50 [1]: 4.01 µM (inactive)
GI50 [2]: 5.02 µM (inactive)
GI50 [3]: 6.49 µM (inactive)
GI50 [4]: 2.64 µM (inactive)
GI50 [5]: 4.97 µM (inactive)
GI50 [58]: 2.68 µM (inactive)
GI50 [6]: 2.24 µM (inactive)
GI50 [7]: 5.56 µM (inactive)
GI50 [8]: 3.7 µM (inactive)
GI50 [9]: 5.81 µM (inactive)
GI50 [10]: 13 µM
GI50 [11]: 11.2 µM (inactive)
GI50 [59]: 3.44 µM (inactive)
GI50 [12]: 9.29 µM (inactive)
GI50 [13]: 6.53 µM (inactive)
GI50 [14]: 3.74 µM (inactive)
GI50 [15]: 2.59 µM (inactive)
GI50 [16]: 2.41 µM (inactive)
GI50 [17]: 5.6 µM (inactive)
GI50 [18]: 13 µM (inactive)
GI50 [19]: 14.6 µM (inactive)
GI50 [20]: 24 µM (inactive)
GI50 [21]: 6.61 µM (inactive)
GI50 [22]: 6.87 µM (inactive)
GI50 [23]: 4.15 µM (inactive)
GI50 [24]: 2.91 µM (inactive)
GI50 [25]: 9.35 µM (inactive)
GI50 [26]: 4.82 µM (inactive)
GI50 [27]: 3.14 µM (inactive)
GI50 [28]: 2.68 µM (inactive)
GI50 [29]: 7.83 µM (inactive)
GI50 [30]: 4.34 µM (inactive)
GI50 [31]: 3.83 µM (inactive)
GI50 [32]: 4.91 µM (inactive)
GI50 [33]: 24.2 µM (inactive)
GI50 [34]: 7.55 µM (inactive)
GI50 [36]: 4.38 µM (inactive)
GI50 [37]: 4.72 µM (inactive)
GI50 [38]: 2.09 µM (inactive)
GI50 [60]: 16.1 µM (inactive)
GI50 [39]: 4.42 µM (inactive)
GI50 [40]: 1.55 µM (inactive)
GI50 [41]: 5.41 µM (inactive)
GI50 [42]: 4.41 µM (inactive)
GI50 [43]: 1.59 µM (inactive)
GI50 [44]: 18.3 µM (inactive)
GI50 [45]: 6.59 µM (inactive)
GI50 [46]: 12.9 µM (inactive)
GI50 [47]: 5.68 µM (inactive)
GI50 [48]: 3.21 µM (inactive)
GI50 [49]: 3.33 µM (inactive)
GI50 [50]: 4.51 µM (inactive)
GI50 [51]: 8.93 µM (inactive)
GI50 [52]: 22.9 µM (inactive)
GI50 [61]: 9.79 µM (inactive)
GI50 [53]: 6.11 µM (inactive)
GI50 [54]: 8.51 µM (inactive)
GI50 [55]: 5.48 µM (inactive)
GI50 [56]: 8.85 µM (inactive)
GI50 [57]: 2.97 µM (inactive)
